Laboratory results published in the NIST ThermoML archive (doi:10.1021/je800348s).
Numbers after ± are expanded uncertainties.

Key:
[1] = 101 kPa, Liquid; for mass density: Vibrating tube method
[2] = xn = mol fraction of the nth substance listed; conditions: 101 kPa, Liquid, x1 = 1; for mass density: Vibrating tube method

Compound | viscosity ([1]; 293.15 K) [mPa·s] | mass density ([1]; 293.15 K) [kg/m3] | viscosity ([1]; 298.15 K) [mPa·s] | mass density ([1]; 298.15 K) [kg/m3] | viscosity ([1]; 303.15 K) [mPa·s] | mass density ([1]; 303.15 K) [kg/m3] | viscosity ([1]; 313.15 K) [mPa·s] | mass density ([1]; 313.15 K) [kg/m3] | mass density ([2]; 293.15 K) [kg/m3] | viscosity ([2]; 293.15 K) [mPa·s] | mass density ([2]; 298.15 K) [kg/m3] | viscosity ([2]; 298.15 K) [mPa·s] | mass density ([2]; 303.15 K) [kg/m3] | viscosity ([2]; 303.15 K) [mPa·s] | mass density ([2]; 313.15 K) [kg/m3] | viscosity ([2]; 313.15 K) [mPa·s]
CCCCCCCCCC [decane] | 0.9491 ± 0.024 | 730 ± 8 | 0.8434 ± 0.022 | 726.4 ± 8 | 0.8172 ± 0.021 | 722.5 ± 8 | 0.7851 ± 0.02 | 715.4 ± 8 | – | – | – | – | – | – | – | –
CCCCCCCCCC [decane] + C1C[C@@H]2[C@H]3CC[C@H](C3)[C@@H]2C1 | – | – | – | – | – | – | – | – | 730 ± 8 | 0.9491 ± 0.024 | 726.4 ± 8 | 0.8434 ± 0.022 | 722.5 ± 8 | 0.8172 ± 0.021 | 715.4 ± 8 | 0.7851 ± 0.02
C1C[C@@H]2[C@H]3CC[C@H](C3)[C@@H]2C1 [exo-tetrahydrodicyclopentadiene] | 3.064 ± 0.077 | 935.2 ± 8 | 2.74 ± 0.069 | 931.4 ± 8 | 2.514 ± 0.063 | 927.7 ± 8 | 2.27 ± 0.057 | 922.2 ± 8 | – | – | – | – | – | – | – | –
CCCCCCCC [octane] | 0.5439 ± 0.015 | 702.5 ± 8 | 0.5177 ± 0.015 | 698.5 ± 8 | 0.4795 ± 0.014 | 694.5 ± 8 | 0.4358 ± 0.013 | 686.3 ± 8 | – | – | – | – | – | – | – | –
CCCCCCCC [octane] + C1C[C@@H]2[C@H]3CC[C@H](C3)[C@@H]2C1 | – | – | – | – | – | – | – | – | 702.5 ± 8 | 0.5439 ± 0.015 | 698.5 ± 8 | 0.5177 ± 0.015 | 694.5 ± 8 | 0.4795 ± 0.014 | 686.3 ± 8 | 0.4358 ± 0.013
